According to US10604528B2, “Galunisertib crystalline form, preparation method thereof and use thereof” (Crystal Pharmaceutical (Suzhou) Co., Ltd., priority 2016, dated 2020):
In brackets after ≈: the same amount, converted by molar mass. Entries after “also recorded” stand apart in the source; their conditions may differ. Like-named read-outs stand apart in the source and are kept apart here.

Assays:
Format in all cases: physicochemical
[1] = Kinetic solubility in FaSSIF, FeSSIF and water (HPLC)
Description: Form A of the present disclosure and Form 1 of the prior art were suspended into FaSSIF (Fasted state simulated intestinal fluids, pH=6.5), FeSSIF (Fed state simulated intestinal fluids, pH=5.0), SGF (Simulated gastric fluids, pH=1.8) and water to get saturated solutions. After equilibrated for 1 h, 4 h and 24 h, concentrations of the saturated solutions were measured by HPLC.

[2] = Particle size distribution (laser particle size analyzer, wet process)
Description: The particle size distribution test in the present disclosure is acquired by the S3500 laser particle size analyzer of Microtrac. Microtrac S3500 is equipped with the SDC (Sample Delivery Controller). The test is carried out by wet process, and the dispersion medium is Isopar G. The parameters are as follow: […]

[3] = Hygroscopicity by dynamic vapor sorption (DVS); details: for Hygroscopicity class / Weight gain at 80% RH: 80% RH; for Hygroscopicity class: Chinese Pharmacopoeia 2015 definition; for Weight gain at 80% RH / Weight gain at 95% RH: DVS
Description: Dynamic vapor sorption (DVS) was applied to test hygroscopicity of Form A and Form 1 disclosed in WO2007018818A1 with about 10 mg of samples.
Description and definition of hygroscopicity (Chinese Pharmacopoeia 2015 edition, 9103 General drug hygroscopic test guidelines, test at 25° C.±1° C., 80% RH).

[4] = Long-term and accelerated solid-state stability (XRPD)
Description: Solid samples of Form A and Form 1 were stored under different conditions of 25° C./60% RH, 40° C./75% RH. 60° C./75% RH and 80° C.

[5] = Mechanical stability (manual grinding, XRPD); details: ground manually for 5 minutes in mortar
Description: Solid sample of Form A of the present disclosure was ground manually for 5 minutes in mortar. The XRPD pattern overlay of the solids before and after grinding is substantially as depicted in FIG. 9 (top: XRPD pattern before grinding, bottom: XRPD pattern after grinding).

Row | Compound | solubility ([1]; FaSSIF pH=6.5, 1 h) [mg/mL] | solubility ([1]; FaSSIF pH=6.5, 4 h) [mg/mL] | solubility ([1]; FaSSIF pH=6.5, 24 h) [mg/mL] | solubility ([1]; FeSSIF pH=5.0, 1 h) [mg/mL] | solubility ([1]; FeSSIF pH=5.0, 4 h) [mg/mL] | solubility ([1]; FeSSIF pH=5.0, 24 h) [mg/mL] | solubility ([1]; H2O, 1 h) [mg/mL] | solubility ([1]; H2O, 4 h) [mg/mL] | solubility ([1]; H2O, 24 h) [mg/mL] | D10 ([2]; ultrasonication time 0 s) [μm] | D50 ([2]; ultrasonication time 0 s) [μm] | D90 ([2]; ultrasonication time 0 s) [μm] | MV (average particle size calculated by volume) ([2]; ultrasonication time 0 s) [μm] | D10 ([2]; ultrasonication time 30 s) [μm] | D50 ([2]; ultrasonication time 30 s) [μm] | D90 ([2]; ultrasonication time 30 s) [μm] | MV (average particle size calculated by volume) ([2]; ultrasonication time 30 s) [μm] | D10 ([2]; ultrasonication time 60 s) [μm] | D50 ([2]; ultrasonication time 60 s) [μm] | D90 ([2]; ultrasonication time 60 s) [μm] | also measured
1 | Cc1cccc(-c2nn3c(c2-c2ccnc4ccc(C(N)=O)cc24)CCC3)n1 [Form 1, 2-(6-methyl-pyridin-2-yl)-3-[6-amido-quinolin-4-yl)-5,6-dihydro-4H-pyrrolo[1,2-b]pyrazole, reference compound] | 0.058 (≈ 157 µM) | 0.051 (≈ 138 µM) | 0.052 (≈ 141 µM) | 0.12 (≈ 325 µM) | 0.11 (≈ 298 µM) | 0.12 (≈ 325 µM) | 0.056 (≈ 152 µM) | 0.055 (≈ 149 µM) | 0.055 (≈ 149 µM) | 33.41 | 56.97 | 95.11 | 62.25 | 24.89 | 42.56 | 68.40 | 45.75 | 22.40 | 37.88 | 59.87 | solubility ([1]; FaSSIF and water, pH 6.5, fassif, thermodynamic from solid, in both FaSSIF and H2O, all sampling points, read-out: solubility): < 0.06 mg/mL; MV (average particle size calculated by volume) ([2]; ultrasonication time 60 s): 40.41 μm; D10 ([2]; ultrasonication time 90 s): 20.94 μm; D50 ([2]; ultrasonication time 90 s): 35.58 μm; D90 ([2]; ultrasonication time 90 s): 55.95 μm; MV (average particle size calculated by volume) ([2]; ultrasonication time 90 s): 37.83 μm; Hygroscopicity class [3]: slightly hygroscopic; Weight gain at 80% RH [3]: 0.33%; Weight gain at 95% RH [3]: 0.53%; Solid form after storage ([4]; 25° C./60% RH, 12 months): Form 1; Solid form after storage ([4]; 40° C./75% RH, 12 months): Form 1; Solid form after storage ([4]; 60° C./75% RH, 2 weeks): Form 1; Solid form after storage ([4]; 80° C., 2 weeks): partially converts to Form A; also recorded: Form 1 + Form A
2 | Cc1cccc(-c2nn3c(c2-c2ccnc4ccc(C(N)=O)cc24)CCC3)n1 [Form A, 2-(6-methyl-pyridin-2-yl)-3-[6-amido-quinolin-4-yl)-5,6-dihydro-4H-pyrrolo[1,2-b]pyrazole] | 0.23 (≈ 623 µM) | 0.27 (≈ 731 µM) | 0.52 (≈ 1410 µM) | 0.48 (≈ 1300 µM) | 0.82 (≈ 2220 µM) | 0.64 (≈ 1730 µM) | 0.17 (≈ 460 µM) | 0.25 (≈ 677 µM) | 0.31 (≈ 839 µM) | 50.28 | 170.3 | 356.4 | 190.8 | 34.37 | 106.2 | 210.5 | 116.1 | 29.37 | 92.81 | 192.2 | solubility relative to Form 1 ([1]; FaSSIF pH=6.5, 24 h): ten times higher than that of Form 1; MV (average particle size calculated by volume) ([2]; ultrasonication time 60 s): 104.1 μm; D10 ([2]; ultrasonication time 90 s): 26.40 μm; D50 ([2]; ultrasonication time 90 s): 83.69 μm; D90 ([2]; ultrasonication time 90 s): 167.2 μm; MV (average particle size calculated by volume) ([2]; ultrasonication time 90 s): 91.94 μm; Hygroscopicity class [3]: non-hygroscopic or almost non-hygroscopic; Weight gain at 80% RH [3]: 0.15%; Weight gain at 95% RH [3]: 0.23%; Solid Form after DVS test ([3]; XRPD after DVS test): does not change after DVS test; also recorded: Form A (no change); Crystalline form (XRPD pattern) after grinding [5]: doesn't change significantly; also recorded: No form change; Time the form keeps stable ([4]; 25° C./60% RH and 40° C./75% RH): at least 12 months; Solid form after storage ([4]; 25° C./60% RH, 12 months): Form A; Solid form after storage ([4]; 40° C./75% RH, 12 months): No form change; also recorded: Form A; Time the form keeps stable ([4]; 60° C./75% RH and 80° C.): at least 2 weeks; Solid form after storage ([4]; 60° C./75% RH, 2 weeks): Form A; Solid form after storage ([4]; 80° C., 2 weeks): Form A
